# Measurements as given in PubChem BioAssay (NCI).
#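 96-well plates; 48 h exposure; 5 concentrations. Endpoints by linear interpolation between flanking doses. Not reached: highest tested concentration assigned. GI50: concentration for 50% inhibition of growth. TGI denotes the concentration required for complete inhibition of growth.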
# Assays:
# Assay in all cases: NCI tumour cell line growth inhibition, 48 h
# HCT-15 colon = tested on: HCT-15 colon
# SF-539 CNS = tested on: SF-539 CNS
# HT29 colon = tested on: HT29 colon
# OVCAR-4 ovarian = tested on: OVCAR-4 ovarian
# U251 CNS = tested on: U251 CNS
# OVCAR-3 ovarian = tested on: OVCAR-3 ovarian
# T-47D breast = tested on: T-47D breast
# SK-MEL-2 melanoma = tested on: SK-MEL-2 melanoma
# HS 578T breast = tested on: HS 578T breast
# SNB-75 CNS = tested on: SNB-75 CNS
Structure (SMILES),GI50 (HCT-15 colon),TGI (HCT-15 colon),GI50 (SF-539 CNS),TGI (SF-539 CNS),GI50 (HT29 colon),TGI (HT29 colon),GI50 (OVCAR-4 ovarian),TGI (OVCAR-4 ovarian),GI50 (U251 CNS),TGI (U251 CNS),GI50 (OVCAR-3 ovarian),TGI (OVCAR-3 ovarian),GI50 (T-47D breast),TGI (T-47D breast),GI50 (SK-MEL-2 melanoma),TGI (SK-MEL-2 melanoma),GI50 (HS 578T breast),TGI (HS 578T breast),GI50 (SNB-75 CNS),TGI (SNB-75 CNS)
Nc1c(C(=O)Nc2cccc3ccccc23)sc2nc3c(cc12)CCCCCC3,0.772 µM,> 50 µM,1.24 µM,> 50 µM,1.67 µM,5.58 µM,5.75 µM,> 50 µM,1.87 µM,> 50 µM,0.979 µM,2.8 µM,25.1 µM,> 50 µM,17 µM,> 50 µM,1.59 µM,> 50 µM,1.24 µM,> 50 µM
CCOc1ccc(-n2cc(-c3ccc(N(C)C)cc3)[n+]3c2CCCCC3)cc1,10.1 µM,> 100 µM,2.26 µM,> 100 µM,0.609 µM,> 24.7 µM,0.103 µM,> 100 µM,0.312 µM,> 100 µM,0.377 µM,60.2 µM,0.0692 µM,–,0.286 µM,6.32 µM,3.33 µM,> 100 µM,0.906 µM,17.7 µM
O=C(O)c1cccc(F)c1C(=O)c1ccc2ccccc2c1,–,> 100 µM,–,> 100 µM,–,> 100 µM,–,> 100 µM,–,> 100 µM,–,> 100 µM,–,> 100 µM,–,> 100 µM,–,> 100 µM,–,> 100 µM
COC(=O)c1cccc(COc2ccc([N+](=O)[O-])cc2Cl)c1,–,> 100 µM,–,> 100 µM,–,> 100 µM,–,> 100 µM,–,> 100 µM,–,> 100 µM,–,> 100 µM,–,> 100 µM,–,> 100 µM,–,> 100 µM
CCCCCCOc1ccc(/C=N/Nc2cc(C)nc3ccc(Br)cc23)cc1,1.52 µM,2.88 µM,1.87 µM,3.29 µM,1.63 µM,3.12 µM,1.81 µM,3.46 µM,1.87 µM,3.36 µM,1.94 µM,3.65 µM,1.82 µM,3.72 µM,1.78 µM,3.32 µM,2.16 µM,4.49 µM,1.84 µM,3.46 µM
O=C1/C=C/[C@@H](O)[C@@H]2C[C@@H](O)C[C@H]2/C=C/CCCCO1,0.364 µM,–,0.383 µM,> 100 µM,0.338 µM,> 100 µM,0.47 µM,> 100 µM,0.408 µM,> 100 µM,0.202 µM,0.468 µM,1.14 µM,4.43 µM,0.257 µM,–,0.282 µM,> 100 µM,0.17 µM,> 100 µM
Nc1c2c(c(O)c3c1=C(CO)C=N3)=NCCS2=O (stereo unspecified),2.99 µM,10.6 µM,1.65 µM,3.06 µM,1.78 µM,4.46 µM,0.312 µM,1.22 µM,1.78 µM,3.26 µM,0.28 µM,0.986 µM,0.688 µM,2.68 µM,1.45 µM,3.8 µM,2.78 µM,7.9 µM,1.74 µM,3.18 µM
Clc1ccc2c(NCCCNCc3ccc4c(c3)OCO4)ccnc2c1,2.42 µM,7.85 µM,1.85 µM,3.41 µM,2.23 µM,6.85 µM,10.8 µM,24.8 µM,2.68 µM,7.11 µM,5.14 µM,18.7 µM,2.11 µM,5.26 µM,2.03 µM,4.56 µM,2.99 µM,11.1 µM,1.52 µM,3.37 µM
CN(Cc1cccc(Cl)c1)c1ccc(CO)c(Cl)c1,16.1 µM,> 76.7 µM,18.7 µM,38.7 µM,9.93 µM,31.2 µM,2.33 µM,16.5 µM,4.21 µM,19.2 µM,3.46 µM,14 µM,0.746 µM,5.17 µM,9.88 µM,27.4 µM,19.7 µM,> 64.5 µM,14.7 µM,49.7 µM
COc1ccc(S(=O)(=O)Nc2c(/C=C\c3cc(OC)c(OC)c(OC)c3)ccc(OC)c2O)cc1OC,0.308 µM,> 100 µM,0.0856 µM,0.457 µM,0.498 µM,> 100 µM,0.664 µM,> 100 µM,0.365 µM,> 100 µM,0.21 µM,–,> 86.9 µM,> 100 µM,2.05 µM,> 100 µM,0.251 µM,> 100 µM,0.251 µM,> 100 µM
Cn1cc(C2=C(c3cn(CCCN/C(N)=N\[N+](=O)[O-])c4ccccc34)C(=O)NC2=O)c2ccccc21,19.8 µM,> 25 µM,0.968 µM,5.11 µM,2.87 µM,12.6 µM,3.22 µM,17.4 µM,2.05 µM,15.4 µM,1.17 µM,11.4 µM,2.01 µM,> 14.8 µM,0.614 µM,2.23 µM,1.42 µM,14.5 µM,0.161 µM,7.92 µM
Cc1nc(N(C)C)nc(-c2cccc(-c3ccn(CCN(C)C)n3)c2)c1C,> 20 µM,> 20 µM,> 20 µM,> 20 µM,> 20 µM,> 20 µM,> 20 µM,> 20 µM,> 20 µM,> 20 µM,> 20 µM,> 20 µM,> 20 µM,> 20 µM,> 20 µM,> 20 µM,12.7 µM,> 20 µM,4.04 µM,> 20 µM
O=P1(NCCCl)OCCC(OO)N1CCCl (stereo unspecified),–,33.9 µM,–,33 µM,–,> 81.9 µM,–,39.1 µM,–,> 100 µM,–,53 µM,–,17.7 µM,–,> 100 µM,–,> 100 µM,–,97 µM
COc1ccccc1NC(=O)C(=O)C(C#N)CC(C)(C)C=O (stereo unspecified),–,> 100 µM,–,> 100 µM,–,> 100 µM,–,> 100 µM,–,> 100 µM,–,> 100 µM,–,> 100 µM,–,> 100 µM,–,> 100 µM,–,> 100 µM
